# Source: patent US10323038B2, “Pyrazole compounds and methods of making and using same” (ABIDE THERAPEUTICS, INC., priority 2015, dated 2019)
# Columns and labels:
# Assay type in all cases: biochemical
# FAAH [1] = target: FAAH (Homo sapiens (Human), UniProt O00519); assay: In vitro competitive activity-based protein profiling, FAAH (human); conditions: human proteome; for inhibition at 1 µM: read-out: FAAH % inh. 1 μM (human); for inhibition at 10 µM: read-out: FAAH % inh. 10 μM (human)
# Description: (§1) In Vitro Competitive Activity-Based Protein Profiling.
# (§2) Proteomes (mouse brain membrane fraction or cell lysates for mouse assays; human prefrontal cortex or cell membrane fractions for human assays) (50 μL, 1.0 mg/mL total protein concentration) were preincubated with varying concentrations of inhibitors at 37° C. After 30 min, FP—Rh or HT-01 (1.0 μL, 50 μM in DMSO) was added and the mixture was incubated for another 30 min at 37° C. Reactions were quenched with SDS loading buffer (15 μL-4×) and run on SDS-PAGE. Following gel imaging, serine hydrolase activity was determined by measuring fluorescent intensity of gel bands corresponding to MAGL and FAAH using ImageJ 1.43u software.
# MAGL [2] = target: MAGL (Homo sapiens (Human), UniProt Q99685); assay: In vitro competitive activity-based protein profiling, MAGL (human); conditions: human proteome; for inhibition at 1 µM: read-out: MAGL % inh. 1 μM (human); for inhibition at 10 µM: read-out: MAGL % inh. 10 μM (human)
# Sequence of MAGL (Homo sapiens (Human), UniProt Q99685) (Q99685 whole entry): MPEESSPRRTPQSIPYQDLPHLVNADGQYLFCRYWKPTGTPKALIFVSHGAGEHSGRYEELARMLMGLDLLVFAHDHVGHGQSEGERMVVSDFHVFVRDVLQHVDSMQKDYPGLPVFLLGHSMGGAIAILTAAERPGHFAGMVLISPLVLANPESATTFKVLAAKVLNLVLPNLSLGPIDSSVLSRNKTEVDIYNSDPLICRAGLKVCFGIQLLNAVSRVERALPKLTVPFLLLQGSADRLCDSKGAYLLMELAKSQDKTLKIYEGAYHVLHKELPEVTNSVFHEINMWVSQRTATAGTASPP
# Description: as §1, §2
# FAAH [3] = target: FAAH (Mus musculus (Mouse), UniProt O08914); assay: In vitro competitive activity-based protein profiling, FAAH (mouse); conditions: 1 μM, read-out: FAAH % inh. 1 μM (mouse)
# Sequence of FAAH (Mus musculus (Mouse), UniProt O08914) (O08914 whole entry): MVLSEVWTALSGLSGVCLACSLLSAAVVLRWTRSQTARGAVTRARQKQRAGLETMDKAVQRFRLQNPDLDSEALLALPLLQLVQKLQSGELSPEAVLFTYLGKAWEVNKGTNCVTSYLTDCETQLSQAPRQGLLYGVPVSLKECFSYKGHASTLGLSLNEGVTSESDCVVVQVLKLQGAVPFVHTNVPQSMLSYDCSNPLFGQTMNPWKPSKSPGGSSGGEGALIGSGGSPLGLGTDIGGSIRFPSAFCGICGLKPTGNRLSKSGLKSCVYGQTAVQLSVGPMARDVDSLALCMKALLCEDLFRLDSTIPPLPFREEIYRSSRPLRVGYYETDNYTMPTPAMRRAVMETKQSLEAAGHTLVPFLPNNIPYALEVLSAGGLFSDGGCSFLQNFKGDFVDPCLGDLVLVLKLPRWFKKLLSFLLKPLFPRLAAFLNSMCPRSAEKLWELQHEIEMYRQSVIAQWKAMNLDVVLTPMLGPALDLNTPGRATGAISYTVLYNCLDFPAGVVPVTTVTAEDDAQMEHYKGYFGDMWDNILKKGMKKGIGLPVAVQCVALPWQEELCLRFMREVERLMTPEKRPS
# Summary of the method: (§3)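 Residual MAGL and FAAH activity came from in-gel fluorescence after competition between inhibitor (30 min preincubation, 37° C) and the activity-based probe FP-Rh or HT-01 (30 min, 37° C) in mouse or human tissue or cell proteomes.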
# MAGL [4] = target: MAGL (Mus musculus (Mouse), UniProt O35678); assay: In vitro competitive activity-based protein profiling, MAGL (mouse); conditions: 1 μM, read-out: MAGL % inh. 1 μM (mouse)
# Sequence of MAGL (Mus musculus (Mouse), UniProt O35678) (O35678 whole entry): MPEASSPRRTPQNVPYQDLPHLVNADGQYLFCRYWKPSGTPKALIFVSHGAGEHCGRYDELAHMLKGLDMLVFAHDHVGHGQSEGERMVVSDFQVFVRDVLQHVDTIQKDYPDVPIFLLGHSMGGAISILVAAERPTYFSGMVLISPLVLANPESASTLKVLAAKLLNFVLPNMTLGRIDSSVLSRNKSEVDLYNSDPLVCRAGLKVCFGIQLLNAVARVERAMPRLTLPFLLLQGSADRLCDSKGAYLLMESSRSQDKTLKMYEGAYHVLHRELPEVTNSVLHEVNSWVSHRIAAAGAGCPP
# Summary of the method: as §3
# Sequence of FAAH (Homo sapiens (Human), UniProt O00519) (O00519 whole entry): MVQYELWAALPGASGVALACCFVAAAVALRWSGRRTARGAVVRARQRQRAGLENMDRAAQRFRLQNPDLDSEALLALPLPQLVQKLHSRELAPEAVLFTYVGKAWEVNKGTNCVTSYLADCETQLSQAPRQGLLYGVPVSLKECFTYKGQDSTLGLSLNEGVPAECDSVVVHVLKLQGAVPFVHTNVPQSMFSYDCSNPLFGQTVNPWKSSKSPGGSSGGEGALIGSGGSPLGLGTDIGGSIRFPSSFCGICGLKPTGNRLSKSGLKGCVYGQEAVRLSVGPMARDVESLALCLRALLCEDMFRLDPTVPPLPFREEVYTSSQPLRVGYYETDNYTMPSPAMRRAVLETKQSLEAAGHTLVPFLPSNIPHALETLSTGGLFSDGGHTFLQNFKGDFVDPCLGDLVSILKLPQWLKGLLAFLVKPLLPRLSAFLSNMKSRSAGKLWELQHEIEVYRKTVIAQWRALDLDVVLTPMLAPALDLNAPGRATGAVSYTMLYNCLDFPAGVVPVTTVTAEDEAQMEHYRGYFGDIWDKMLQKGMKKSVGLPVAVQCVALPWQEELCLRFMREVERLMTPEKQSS
Compound,inhibition at 1 µM (FAAH [1]) [%],inhibition at 1 µM (MAGL [2]) [%],inhibition at 10 µM (FAAH [1]) [%],inhibition at 10 µM (MAGL [2]) [%],inhibition at 1 µM (FAAH [3]) [%],inhibition at 1 µM (MAGL [4]) [%]
"CC(=O)N(C)c1cnn(C(=O)N2CCC3(CCN(Cc4ccccc4C)C3)C2)c1 (stereo not shown) [Example 54, N-methyl-N-(1-(7-(2-methylbenzyl)-2,7-diazaspiro[4.4]nonane-2-carbonyl)-1H-pyrazol-4-yl)acetamide]",,,≥ 75,≥ 75,≥ 75,0 to 25
"COc1ccc(CN2CCC3(CCN(C(=O)n4cc(N(C)C(C)=O)cn4)C3)C2)cc1 (stereo not shown) [Example 77, N-(1-(7-(4-methoxybenzyl)-2,7-diazaspiro[4.4]nonane-2-carbonyl)-1H-pyrazol-4-yl)-N-methylacetamide]",,,≥ 75,≥ 75,25 to 50,0 to 25
"CS(=O)(=O)Nc1cnn(C(=O)N2CCC3(CCN(Cc4ccc(Cl)c(Cl)c4)C3)C2)c1 (stereo not shown) [Example 283, N-(1-(7-(3,4-dichlorobenzyl)-2,7-diazaspiro[4.4]nonane-2-carbonyl)-1H-pyrazol-4-yl)methanesulfonamide]",≥ 75,≥ 75,,,,
"CC(=O)N(C)c1cnn(C(=O)N2CCC3(CCN(Cc4ccc(F)cc4)C3)C2)c1 (stereo not shown) [Example 75, N-(1-(7-(4-fluorobenzyl)-2,7-diazaspiro[4.4]nonane-2-carbonyl)-1H-pyrazol-4-yl)-N-methylacetamide]",,,≥ 75,≥ 75,50 to 75,0 to 25
"CC(=O)N(C)c1cnn(C(=O)N2CCC3(CCN(Cc4ccc(C)cc4)C3)C2)c1 (stereo not shown) [Example 76, N-methyl-N-(1-(7-(4-methylbenzyl)-2,7-diazaspiro[4.4]nonane-2-carbonyl)-1H-pyrazol-4-yl)acetamide]",,,≥ 75,≥ 75,50 to 75,0 to 25
"CC(=O)Nc1cnn(C(=O)N2CC3CN(Cc4cccc(Oc5ccc(Cl)cc5)c4)CC3C2)c1 (stereo not shown) [Example 316, N-(1-(5-(3-(4-chlorophenoxy)benzyl)octahydropyrrolo [3,4-c]pyrrole-2-carbonyl)-1H-pyrazol-4-yl)acetamide]",≥ 75,≥ 75,,,,
"CS(=O)(=O)Nc1cnn(C(=O)N2CCC3(CCN(Cc4cccc(Cl)c4Cl)C3)C2)c1 (stereo not shown) [Example 288, N-(1-(7-(2,3-dichlorobenzyl)-2,7-diazaspiro[4.4]nonane-2-carbonyl)-1H-pyrazol-4-yl)methanesulfonamide]",≥ 75,≥ 75,,,,
"CS(=O)(=O)Nc1cnn(C(=O)N2CCC3(CCN(Cc4ccc(N5CCCC5)c(Cl)c4)C3)CC2)c1 [Example 298, N-(1-(2-(3-chloro-4-(pyrrolidin-1-yl)benzyl)-2,8-diazaspiro[4.5]|decane-8-carbonyl)-1H-pyrazol-4-yl)methanesulfonamide]",≥ 75,≥ 75,,,,

# Continued, values first:
inhibition at 1 µM (FAAH [1]) [%],inhibition at 1 µM (MAGL [2]) [%],inhibition at 10 µM (FAAH [1]) [%],inhibition at 10 µM (MAGL [2]) [%],inhibition at 1 µM (FAAH [3]) [%],inhibition at 1 µM (MAGL [4]) [%],Compound
0 to 25,50 to 75,,,,,"Cc1nnc(-c2ccc(CN3CCN(C(=O)n4cc(NS(C)(=O)=O)cn4)CC3)c(C(F)(F)F)c2)o1 [Example 306, N-(1-(4-(4-(5-methyl-1,3,4-oxadiazol-2-yl)-2-(trifluoromethyl)benzyl)piperazine-1-carbonyl)-1H-pyrazol-4-yl)methanesulfonamide]"
,,≥ 75,≥ 75,,,"CS(=O)(=O)Nc1cnn(C(=O)N2CCN(Cc3ccc(-c4ccc(C(F)(F)F)nc4)cc3C(F)(F)F)CC2)c1 [Example 301, N-(1-(4-(2-(trifluoromethyl)-4-(6-(trifluoromethyl)pyridin-3-yl)benzyl)piperazine-1-carbonyl)-1H-pyrazol-4-yl)methanesulfonamide]"
0 to 25,≥ 75,,,,,"Cc1nccn1-c1ccc(CN2CCN(C(=O)n3cc(NS(C)(=O)=O)cn3)CC2)c(C(F)(F)F)c1 [Example 308, N-(1-(4-(4-(2-methyl-1H-imidazol-1-yl)-2-(trifluoromethyl)benzyl)piperazine-1-carbonyl)-1H-pyrazol-4-yl)methanesulfonamide]"
,,≥ 75,≥ 75,≥ 75,0 to 25,"COc1ccccc1CN1CC2CN(C(=O)n3cc(N(C)C(C)=O)cn3)CC2C1 (stereo not shown) [Example 183, N-(1-(5-(2-methoxybenzyl)octahydropyrrolo[3,4-c]pyrrole-2-carbonyl)-1H-pyrazol-4-yl)-N-methylacetamide]"
≥ 75,≥ 75,,,,,"CS(=O)(=O)Nc1cnn(C(=O)N2CCC3(CCN(Cc4ccc(N5CCCC5)cc4C(F)(F)F)C3)C2)c1 (stereo not shown) [Example 285, N-(1-(7-(4-(pyrrolidin-1-yl)-2-(trifluoromethyl)benzyl)-2,7-diazaspiro[4.4]nonane-2-carbonyl)-1H-pyrazol-4-yl)methanesulfonamide]"
,,≥ 75,≥ 75,≥ 75,0 to 25,"CC(=O)N(C)c1cnn(C(=O)N2C[C@H]3C[C@@H](NCc4cccc(Cl)c4)C[C@H]3C2)c1 [Example 134, N-(1-(cis-5-(3-chlorobenzylamino)octahydrocyclopenta[c]pyrrole-2-carbonyl)-1H-pyrazol-4-yl)-N-methylacetamide]"
≥ 75,≥ 75,,,,,CS(=O)(=O)Nc1cnn(C(=O)N2CCN(Cc3ccc(-c4ncccn4)cc3C(F)(F)F)CC2)c1 [Example 310]
25 to 50,≥ 75,,,,,"CS(=O)(=O)Nc1cnn(C(=O)N2CCN(Cc3ccc(-c4ccnnc4)cc3C(F)(F)F)CC2)c1 [Example 312, N-(1-(4-(4-(pyridazin-4-yl)-2-(trifluoromethyl)benzyl)piperazine-1-carbonyl)-1H-pyrazol-4-yl)methanesulfonamide]"
≥ 75,25 to 50,,,,,"CS(=O)(=O)Nc1cnn(C(=O)N2CCN(Cc3ccc(-c4nc5ccccc5o4)cc3C(F)(F)F)CC2)c1 [Example 304, N-(1-(4-(4-(benzo[d]oxazol-2-yl)-2-(trifluoromethyl)benzyl)piperazine-1-carbonyl)-1H-pyrazol-4-yl)methanesulfonamide]"
≥ 75,≥ 75,,,,,"CN(Cc1ccccc1C(F)(F)F)[C@@H]1C[C@@H]2CN(C(=O)n3cc(NS(C)(=O)=O)cn3)C[C@@H]2C1 [Example 300, N-(1-(cis-5-(methyl(2-(trifluoromethyl)benzyl)amino)octahydrocyclopenta[c]pyrrole-2-carbonyl)-1H-pyrazol-4-yl)methanesulfonamide]"
50 to 75,≥ 75,,,,,"CS(=O)(=O)Nc1cnn(C(=O)N2CCN(Cc3ccc(-c4cccnn4)cc3C(F)(F)F)CC2)c1 [Example 311, N-(1-(4-(4-(pyridazin-3-yl)-2-(trifluoromethyl)benzyl)piperazine-1-carbonyl)-1H-pyrazol-4-yl)methanesulforamide]"
≥ 75,25 to 50,,,,,"C#Cc1ccc(CN2CCN(C(=O)n3cc(NS(C)(=O)=O)cn3)CC2)cc1 [Example 318, N-(1-(4-(4-ethynylbenzyl)piperazine-1-carbonyl)-1H-pyrazol-4-yl)methanesulfonamide]"
